System: human plasma
Assay: plasma binding by partition extraction in dimethylsiloxane-coated 96-well plates
Type: in vitro ADME
Conditions: one plate
Description: 96-wells deepwell plates (lot 1450-401 Perkin-Elmer Lifesciences) were coated with dimethylsiloxane by making the solutions A-H here below in n-hexane. The used dimethylsiloxane (Silicone rubber, GE Silicones, Bergen op Zoom, The Netherlands) has a density of 1.06. Solution H contains 9.54 g dimethylsiloxane in 300 ml n-hexane.
From solutions A-H 100 μl is pipetted in row A-H of each plate. Plates were dried to air for minimally 18 hours (overnight).
To each dilution of plasma (solutions 1-12) an identical amount of the compound to be tested is added (about […]/200 μl solution). […] The solutions are incubated with the compound overnight at 4°.
The plasma solutions 1-12 are added to corresponding columns 1-12 of each plate (200 μl/well). Also 200 μl was added to a separate vessel to be able to correct for (plasma concentration dependent) solubilization. The next day the plates are emptied, washed once with aqua bidest and dried. When sufficient dry in all wells 200 μl counting solution (Optiphase Hisafe 2, Perkin Elmer Lifesciences) is added and the plates are covered. After incubation for minimally 4 hours under gently shaking the radioactivity in each plate is determined using liquid scintillation counting with a MicroBeta device (Perkin Elmer).
Additionally a total count was determined for each well. The total count is the count in the polymer coating+the count in the remaining fluid. The latter was determined by isolating 25 μl from solution in each well prior to emptying, and mixing with Optiphase (Perkin Elmer) followed by liquid scintillation counting.
1. For each datapoint for which the total count was determined, the recovery of total radioactivity was determined by comparing with the counts of the reference spiking solution. Cells with a total recovery <75% were excluded from further data analysis.
2. From all rows containing polymer, the a-specific binding, i.e. the corresponding counts from the row without polymer, was substracted.
3. Curve fitting was applied using the following formula for each cell:
Predicted counts in coating=Tc/((1/ffp+1/fp−1)×(fp×Vw)/Kpdms/Vp)), where
The above formula was fitted using ffp and Kpdms target parameters to be optimized using the least squares regression method over all wells that were included in the data analysis, by calculating the squared difference between the measured counts in the coating and the predicted counts in the coating. Results

## CC(C)c1nc(CN(C)C(=O)N[C@H](C(=O)N[C@@H](Cc2ccccc2)C[C@H](O)[C@H](Cc2ccccc2)NC(=O)OCc2cncs2)C(C)C)cs1 [Ritonavir]
Plasma 0 ml/ml, coating 0 nl
  counts in the polymer coating: 2561
Plasma 0 ml/ml, coating 4.1 nl
  counts in the polymer coating: 3274
Plasma 0 ml/ml, coating 10.2 nl
  counts in the polymer coating: 4727
Plasma 0 ml/ml, coating 25.6 nl
  counts in the polymer coating: 6222
Plasma 0 ml/ml, coating 64 nl
  counts in the polymer coating: 6561
Plasma 0 ml/ml, coating 160 nl
  counts in the polymer coating: 8997
Plasma 0 ml/ml, coating 400 nl
  counts in the polymer coating: 9656
Plasma 0 ml/ml, coating 1000 nl
  counts in the polymer coating: 10194
Plasma 0.0005 ml/ml, coating 0 nl
  counts in the polymer coating: 408
Plasma 0.0005 ml/ml, coating 4.1 nl
  counts in the polymer coating: 3323
Plasma 0.0005 ml/ml, coating 10.2 nl
  counts in the polymer coating: 5936
Plasma 0.0005 ml/ml, coating 25.6 nl
  counts in the polymer coating: 9146
Plasma 0.0005 ml/ml, coating 64 nl
  counts in the polymer coating: 14297
Plasma 0.0005 ml/ml, coating 160 nl
  counts in the polymer coating: 16590
Plasma 0.0005 ml/ml, coating 400 nl
  counts in the polymer coating: 17305
Plasma 0.0005 ml/ml, coating 1000 nl
  counts in the polymer coating: 17396
Plasma 0.0008 ml/ml, coating 0 nl
  counts in the polymer coating: 355
Plasma 0.0008 ml/ml, coating 4.1 nl
  counts in the polymer coating: 3033
Plasma 0.0008 ml/ml, coating 10.2 nl
  counts in the polymer coating: 6243
Plasma 0.0008 ml/ml, coating 25.6 nl
  counts in the polymer coating: 9649
Plasma 0.0008 ml/ml, coating 64 nl
  counts in the polymer coating: 15214
Plasma 0.0008 ml/ml, coating 160 nl
  counts in the polymer coating: 17344
Plasma 0.0008 ml/ml, coating 400 nl
  counts in the polymer coating: 18129
Plasma 0.0008 ml/ml, coating 1000 nl
  counts in the polymer coating: 18254
Plasma 0.001 ml/ml, coating 0 nl
  counts in the polymer coating: 368
Plasma 0.001 ml/ml, coating 4.1 nl
  counts in the polymer coating: 2677
Plasma 0.001 ml/ml, coating 10.2 nl
  counts in the polymer coating: 6668
Plasma 0.001 ml/ml, coating 25.6 nl
  counts in the polymer coating: 10037
Plasma 0.001 ml/ml, coating 64 nl
  counts in the polymer coating: 15293
Plasma 0.001 ml/ml, coating 160 nl
  counts in the polymer coating: 17749
Plasma 0.001 ml/ml, coating 400 nl
  counts in the polymer coating: 18063
Plasma 0.001 ml/ml, coating 1000 nl
  counts in the polymer coating: 18984
Plasma 0.003 ml/ml, coating 0 nl
  counts in the polymer coating: 250
Plasma 0.003 ml/ml, coating 4.1 nl
  counts in the polymer coating: 2391
Plasma 0.003 ml/ml, coating 10.2 nl
  counts in the polymer coating: 6779
Plasma 0.003 ml/ml, coating 25.6 nl
  counts in the polymer coating: 9818
Plasma 0.003 ml/ml, coating 64 nl
  counts in the polymer coating: 15161
Plasma 0.003 ml/ml, coating 160 nl
  counts in the polymer coating: 18112
Plasma 0.003 ml/ml, coating 400 nl
  counts in the polymer coating: 19067
Plasma 0.003 ml/ml, coating 1000 nl
  counts in the polymer coating: 19314
Plasma 0.005 ml/ml, coating 0 nl
  counts in the polymer coating: 266
Plasma 0.005 ml/ml, coating 4.1 nl
  counts in the polymer coating: 2725
Plasma 0.005 ml/ml, coating 10.2 nl
  counts in the polymer coating: 7054
Plasma 0.005 ml/ml, coating 25.6 nl
  counts in the polymer coating: 10234
Plasma 0.005 ml/ml, coating 64 nl
  counts in the polymer coating: 15908
Plasma 0.005 ml/ml, coating 160 nl
  counts in the polymer coating: 18628
Plasma 0.005 ml/ml, coating 400 nl
  counts in the polymer coating: 19174
Plasma 0.005 ml/ml, coating 1000 nl
  counts in the polymer coating: 19676
Plasma 0.008 ml/ml, coating 0 nl
  counts in the polymer coating: 262
Plasma 0.008 ml/ml, coating 4.1 nl
  counts in the polymer coating: 2605
Plasma 0.008 ml/ml, coating 10.2 nl
  counts in the polymer coating: 5943
Plasma 0.008 ml/ml, coating 25.6 nl
  counts in the polymer coating: 9899
Plasma 0.008 ml/ml, coating 64 nl
  counts in the polymer coating: 15892
Plasma 0.008 ml/ml, coating 160 nl
  counts in the polymer coating: 18582
Plasma 0.008 ml/ml, coating 400 nl
  counts in the polymer coating: 19405
Plasma 0.008 ml/ml, coating 1000 nl
  counts in the polymer coating: 19541
Plasma 0.01 ml/ml, coating 0 nl
  counts in the polymer coating: 260
Plasma 0.01 ml/ml, coating 4.1 nl
  counts in the polymer coating: 2644
Plasma 0.01 ml/ml, coating 10.2 nl
  counts in the polymer coating: 6466
Plasma 0.01 ml/ml, coating 25.6 nl
  counts in the polymer coating: 9247
Plasma 0.01 ml/ml, coating 64 nl
  counts in the polymer coating: 15112
Plasma 0.01 ml/ml, coating 160 nl
  counts in the polymer coating: 18647
Plasma 0.01 ml/ml, coating 400 nl
  counts in the polymer coating: 19137
Plasma 0.01 ml/ml, coating 1000 nl
  counts in the polymer coating: 19454
Plasma 0.02 ml/ml, coating 0 nl
  counts in the polymer coating: 208
Plasma 0.02 ml/ml, coating 4.1 nl
  counts in the polymer coating: 2135
Plasma 0.02 ml/ml, coating 10.2 nl
  counts in the polymer coating: 5288
Plasma 0.02 ml/ml, coating 25.6 nl
  counts in the polymer coating: 8673
Plasma 0.02 ml/ml, coating 64 nl
  counts in the polymer coating: 14665
Plasma 0.02 ml/ml, coating 160 nl
  counts in the polymer coating: 18017
Plasma 0.02 ml/ml, coating 400 nl
  counts in the polymer coating: 19188
Plasma 0.02 ml/ml, coating 1000 nl
  counts in the polymer coating: 19218
Plasma 0.03 ml/ml, coating 0 nl
  counts in the polymer coating: 195
Plasma 0.03 ml/ml, coating 4.1 nl
  counts in the polymer coating: 1925
Plasma 0.03 ml/ml, coating 10.2 nl
  counts in the polymer coating: 4066
Plasma 0.03 ml/ml, coating 25.6 nl
  counts in the polymer coating: 6969
Plasma 0.03 ml/ml, coating 64 nl
  counts in the polymer coating: 13475
Plasma 0.03 ml/ml, coating 160 nl
  counts in the polymer coating: 17384
Plasma 0.03 ml/ml, coating 400 nl
  counts in the polymer coating: 18707
Plasma 0.03 ml/ml, coating 1000 nl
  counts in the polymer coating: 19112
Plasma 0.04 ml/ml, coating 0 nl
  counts in the polymer coating: 156
Plasma 0.04 ml/ml, coating 4.1 nl
  counts in the polymer coating: 1501
Plasma 0.04 ml/ml, coating 10.2 nl
  counts in the polymer coating: 3633
Plasma 0.04 ml/ml, coating 25.6 nl
  counts in the polymer coating: 5932
Plasma 0.04 ml/ml, coating 64 nl
  counts in the polymer coating: 12160
Plasma 0.04 ml/ml, coating 160 nl
  counts in the polymer coating: 16322
Plasma 0.04 ml/ml, coating 400 nl
  counts in the polymer coating: 18174
Plasma 0.04 ml/ml, coating 1000 nl
  counts in the polymer coating: 18716
Plasma 0.05 ml/ml, coating 0 nl
  counts in the polymer coating: 124
Plasma 0.05 ml/ml, coating 4.1 nl
  counts in the polymer coating: 1143
Plasma 0.05 ml/ml, coating 10.2 nl
  counts in the polymer coating: 2760
Plasma 0.05 ml/ml, coating 25.6 nl
  counts in the polymer coating: 5080
Plasma 0.05 ml/ml, coating 64 nl
  counts in the polymer coating: 10938
Plasma 0.05 ml/ml, coating 160 nl
  counts in the polymer coating: 16100
Plasma 0.05 ml/ml, coating 400 nl
  counts in the polymer coating: 17730
Plasma 0.05 ml/ml, coating 1000 nl
  counts in the polymer coating: 18325

Reference: patent US8759011B2, “Assay system for determining binding of hydrophobic drugs” (Nederlandse Organisatie voor …, priority 2009, dated 2014)
